Experiment [1] relates to CT26 tumors. The experiment is described as follows: Subcutaneous CT26 murine colon cancer model, tumor volume. The class given is in vivo, Balb/c mice. The conditions noted are these: doxorubicin alone, 10 mg/kg. The text has this:
(§1) FIG. 6A-D. The combined effects of SipA-AuNPs and exogenous doxorubicin prevent tumor growth. (FIG. 6A) Balb/c mice bearing subcutaneous CT26 tumors (mean tumor volumes of approximately 0.5 mm^3) received IP treatments for 15 days as described in the Materials and Methods section, (▪) Untreated, (●) AuNP alone, (▴A) SipA-AuNPs, (♦) Doxorubicin or (□) SipA-AuNP plus Doxorubicin (DOX). SipA-AuNPs conjugates improve the efficacy of doxorubicin. (*P<0.0001). (FIG. 6B) Accumulation of gold nanoparticles in the tumors shown in (FIG. 6A) was evaluated by SEM and X-ray microanalysis. Color intensity represents tumor penetration. The sections of tumor were imaged for X-ray analysis and X-ray mapping as described in the Materials and Methods section. (FIG. 6C) P-gp expression in the tumors shown in (FIG. 6A) was evaluated by western blot. Tumors were homogenized and lysed. Whole cell lysates were normalized for protein levels and probed for P-gp. Levels of P-gp were quantified by densitometry and presented on the bar cart. Densitometry was performed using ImageJ and results are presented as relative to the untreated cells. […] Levels of P-gp were quantified by densitometry and presented on the bar graph. […]
The subcutaneous tumor model. […] Tumor size was measured using calipers and volumes were estimated using the formula 0.5×length×(width)^2. […]

Experiment [2] deals with P-gp. The experiment is described as follows: P-gp expression in HCT8 cell monolayers, Western blot. The class given is cell-based, human. How it is done:
FIG. 5A-B. SipA-AuNPs decrease the expression of P-gp at a SipA dose nearly 500 times lower than free SipA. (FIG. 5A) Schematic presentation of P-gp knockdown mechanism via SipA-AuNP. (FIG. 5B) HCT8 cell monolayers were left untreated (−), exposed to […] 160 μg/ml of purified SipA, AuNP alone or AuNP-SipA (0.72 μg/ml of SipA).
(§2) Cell culture. The human intestinal adenocarcinoma cell line HCT8 were maintained in accordance with (8). The human breast adenocarcinoma cell line MCF-7, the human bladder transitional cell carcinoma cell line UM-UC-3, and the CT26 murine colon carcinoma cell line, were purchased from ATCC and were all maintained in DMEM F-12 containing a 10% fetal bovine serum, 100 U/ml penicillin, and 10 μg/ml streptomycin at 37° C. in 90% relative humidity and 5% CO2.
Cell lysates and Western Blot analysis. Cell lysates were harvested from S. Typhimurium-infected HCT8 cells, as previously described (8). Proteins were normalized to 30 μg, separated by SDS/PAGE (4-12% gradient; Biorad, Hercules, Calif.), and transferred to nitrocellulose (Bio-Rad; 0.45μ membrane). Immuno-blots were performed using the murine monoclonal P-gp C219 antibody (calbiochem) diluted at 1:100. […]
(In general: Immunoblotting shows a protein as a band on a membrane.)

Experiment [3] relates to P-gp. The experiment in a line: P-gp expression in MCF-7 breast adenocarcinoma cells, Western blot. Type of experiment: cell-based, human. The conditions noted are these: MCF-7 cells, 80 or 160 μg/ml purified SipA, 3 h, compared to buffer control. How it is done: (§3) FIG. 3A-B. SipA-induced, dose-dependent P-gp down-regulation is conserved in other cancer cell types. (FIG. 3A) MCF-7 breast adenocarcinoma cells were left untreated (−) or exposed to 80 μg/ml or 160 μg/ml of purified SipA for 3 h. Normalized whole cell lysates were then probed for P-gp and GAPDH. Densitometry was analyzed by ImageJ and presented as relative to the untreated cells. (FIG. 3B) UM-UC-3 human bladder carcinoma cells were left untreated or exposed to 80 μg/ml or 160 μg/ml of purified SipA for 3 h, and then probed and analyzed as in (FIG. 3A).
as §2
(§4) Cell lysates and Western Blot analysis. Cell lysates were harvested from S. Typhimurium-infected HCT8 cells, as previously described (8). Proteins were normalized to 30 μg, separated by SDS/PAGE (4-12% gradient; Biorad, Hercules, Calif.), and transferred to nitrocellulose (Bio-Rad; 0.45μ membrane). […]

The test system of experiment [4] is P-gp. The experiment is described as follows: P-gp expression in UM-UC-3 bladder carcinoma cells, Western blot. The class given is cell-based, human. The conditions noted are these: UM-UC-3 cells, 80 or 160 μg/ml purified SipA, 3 h. The protocol: as §3, §2, §4
Experiment [5] addresses T1, PERP (Homo sapiens, UniProt Q96FX8).
T1 construct: host or cells: yeast (split-ubiquitin two-hybrid system)
The experiment is described as follows: Split-ubiquitin yeast-two hybrid analysis with full length SipA as bait. The class given is binding. To be noted: human cancer colon mRNA-based library as prey; epithelial surfaces. The text has this: (§5) In a further embodiment, SipA increases the level of expression of PERP in cells, PERP is a tetraspan membrane protein originally identified as a transcriptional target of the p53 tumor suppressor (10). P53 regulates the cell cycle and, thus, functions as a tumor suppressor that is involved in preventing cancer. As such, p53 has been described as “the guardian of the genome”, referring to its role in conserving stability by preventing genome mutation. Fundamental to the tumor-suppressor role of p53 is the ability to engage in apoptosis. […] Studies investigating the interaction of SipA with the surface epithelial cells have been carried out (13, 14). The inventors used a split-ubiquitin based yeast-two hybrid analysis system (Dualsystems Biotech) with full length SipA as bait and a human cancer colon mRNA-based library as prey, to identify PERP, a p53 induced apoptotic effector, as a SipA interacting partner. […] While an understanding of the mechanism is not necessary, and without limiting the invention to any particular mechanism, and although the precise function of PERP in eliciting an apoptotic response remains unknown, initial reports indicate that PERP expression causes nuclear localization of p53 and increases the level of transcriptionally active p53 protein. […] Including increased protein stability, postranslational modifications, and enhanced nuclear accumulation. […]

Experiment [6] has as its system PERP. The experiment in a line: PERP protein expression in human colonic cancers in vitro. Type of experiment: cell-based.
Excerpt: as §5

Experiment [7] has as its system P-gp. The experiment in a line: Colonic P-gp expression in mice colonized with S. Typhimurium strains. The class given is in vivo, Balb/c mice. The conditions noted are these: SipA over-expressing strain (AJK63) vs isogenic SipA mutant strain (EE633), proximal colon, 48 hours.
Excerpt: as §1, with “Whole cell lysates were normalized for protein levels and probed for P-gp.” left out, “cart.” for “cart. Densitometry was performed using ImageJ and results are presented as relative to the untreated cells.”
Since normal healthy intestinal epithelium display baseline expression of P-gp, the inventors evaluated the colonic expression of P-gp in mice colonized with a S. Typhimurium strain that over-expresses SipA (AJK63) compared to mice colonized with an equivalent amount of an isogenic SipA mutant strain (EE633). […]

Chain of P-gp (P08183 whole entry): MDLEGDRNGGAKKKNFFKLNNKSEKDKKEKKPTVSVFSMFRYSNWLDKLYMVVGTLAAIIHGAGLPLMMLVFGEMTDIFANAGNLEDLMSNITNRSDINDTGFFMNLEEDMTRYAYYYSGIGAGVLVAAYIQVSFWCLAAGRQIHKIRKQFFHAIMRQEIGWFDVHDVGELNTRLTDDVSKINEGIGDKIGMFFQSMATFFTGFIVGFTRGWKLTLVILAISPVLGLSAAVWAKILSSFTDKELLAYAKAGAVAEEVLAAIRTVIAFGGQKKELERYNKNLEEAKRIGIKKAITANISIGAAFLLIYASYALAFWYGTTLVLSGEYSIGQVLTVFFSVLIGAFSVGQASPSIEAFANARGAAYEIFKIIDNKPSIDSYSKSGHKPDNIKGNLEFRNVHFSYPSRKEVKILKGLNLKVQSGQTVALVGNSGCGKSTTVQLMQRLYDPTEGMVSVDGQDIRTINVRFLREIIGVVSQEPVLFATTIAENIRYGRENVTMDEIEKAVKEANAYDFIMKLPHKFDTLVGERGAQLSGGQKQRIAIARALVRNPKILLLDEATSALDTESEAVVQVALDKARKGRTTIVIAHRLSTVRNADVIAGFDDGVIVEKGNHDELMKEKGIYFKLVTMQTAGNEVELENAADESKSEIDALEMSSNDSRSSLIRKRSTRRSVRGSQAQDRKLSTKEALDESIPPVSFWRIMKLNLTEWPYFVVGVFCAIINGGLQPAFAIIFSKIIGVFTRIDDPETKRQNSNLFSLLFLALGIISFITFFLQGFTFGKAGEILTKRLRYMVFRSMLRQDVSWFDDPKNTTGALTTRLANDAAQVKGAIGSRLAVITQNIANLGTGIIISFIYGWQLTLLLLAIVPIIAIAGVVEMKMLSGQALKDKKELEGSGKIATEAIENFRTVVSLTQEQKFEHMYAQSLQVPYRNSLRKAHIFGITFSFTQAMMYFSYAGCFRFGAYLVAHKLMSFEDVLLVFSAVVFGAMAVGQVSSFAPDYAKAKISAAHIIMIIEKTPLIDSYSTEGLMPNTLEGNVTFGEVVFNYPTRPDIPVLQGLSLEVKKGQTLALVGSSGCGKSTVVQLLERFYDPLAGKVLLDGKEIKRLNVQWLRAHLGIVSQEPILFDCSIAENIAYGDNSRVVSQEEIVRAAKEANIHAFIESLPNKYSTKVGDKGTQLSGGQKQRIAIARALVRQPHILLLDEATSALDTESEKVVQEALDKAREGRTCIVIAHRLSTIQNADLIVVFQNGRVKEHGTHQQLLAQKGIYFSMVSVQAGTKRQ
T1 sequence (Q96FX8 whole entry): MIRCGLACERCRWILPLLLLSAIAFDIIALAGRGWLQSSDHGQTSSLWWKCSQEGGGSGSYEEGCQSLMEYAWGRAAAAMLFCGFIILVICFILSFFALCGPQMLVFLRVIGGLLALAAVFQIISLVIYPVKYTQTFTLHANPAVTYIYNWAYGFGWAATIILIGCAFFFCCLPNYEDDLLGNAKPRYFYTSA

For `COc1cccc2c1C(=O)c1c(O)c3c(c(O)c1C2=O)C[C@@](O)(C(=O)CO)C[C@@H]3O[C@H]1C[C@H](N)[C@H](O)[C@H](C)O1` [doxorubicin], the “effect on tumor size” value in experiment [1] was “minimal effect on tumor size”.
Consider “SipA: Salmonella Typhimurium type III secreted effector protein, SEQ ID NO:01; purified as SipA-HA fusion protein”, for which, in experiment [2] (HCT8 monolayers, 80 μg/ml or 160 μg/ml purified SipA-HA, 3 hours), the “modulation of P-gp expression” value is reported as “dose dependent ability to modulate P-gp to the same degree as wild-type S. Typhimurium”. Besides, the entries for the “reduction of P-gp expression” value in experiment [3] and in experiment [4] were 40% and 95%, respectively. Moreover, in experiment [5], the “interaction with PERP” value was “bind to PERP at epithelial surfaces”. In addition, in experiment [6], the PERP protein expression result is on record as “up-regulates the protein expression of PERP”. Further, in experiment [7], the “expression of P-gp in healthy murine intestinal epithelium” value was “could modulate the expression of P-gp in healthy murine intestinal epithelium in vivo”.
Consider lipopolysaccharide [reference compound], for which the “modulation of P-gp by lipopolysaccharide” value in experiment [2] (HCT8, purified LPS from S. typhimurium 0.1 to 100 μg/ml, 3 h) is “not attributed to trace amounts of lipopolysaccharide”.
